The subject of one data set is M. tuberculosis. The format is in vivo. The note with it: target dose 30 mg/kg, once a day, 9 days post-infection.
The nature of data set [1]: Compound stability in solution. The note with it: stability in cell growth media or buffer solutions.
The next data set can be described thus: UV absorbance peak. The following applies: UV absorbance peak in solution.
A further data set has as its system mc^2-7000 Mtb. The data set is described as follows: MABA MIC99 determination, mc^2-7000 strain. The note with it: for MIC99 mc^2-7000 Mtb acetate: M9 media with acetate; for MIC99: Mycobacterium tuberculosis. The format is cell-based, Mycobacterium tuberculosis. On the technique in general: Alamar Blue is a resazurin reagent that responds to reducing activity.
Data set [2] is classed as in vitro ADME. The note with it: equilibrium dialysis.
A further data set has as its system H37Rv. In words: MABA MIC99 determination, H37Rv strain. The format is cell-based, Mycobacterium tuberculosis.
The target in data set [3] is T1, ICL (Mycobacterium tuberculosis, UniProt P9WKK7).
T1 sequence (P9WKK7 1-428): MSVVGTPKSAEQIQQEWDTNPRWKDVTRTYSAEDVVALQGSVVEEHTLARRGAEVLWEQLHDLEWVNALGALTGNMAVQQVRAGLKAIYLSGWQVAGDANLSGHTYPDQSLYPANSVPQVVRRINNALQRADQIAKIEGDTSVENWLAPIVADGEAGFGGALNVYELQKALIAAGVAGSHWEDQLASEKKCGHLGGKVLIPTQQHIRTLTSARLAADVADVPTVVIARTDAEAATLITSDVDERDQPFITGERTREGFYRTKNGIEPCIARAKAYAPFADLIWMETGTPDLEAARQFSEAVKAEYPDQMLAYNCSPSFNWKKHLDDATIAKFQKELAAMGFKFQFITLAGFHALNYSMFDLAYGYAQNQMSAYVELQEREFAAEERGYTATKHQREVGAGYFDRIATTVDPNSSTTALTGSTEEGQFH
The data set is described as follows: Isocitrate lyase. The format is biochemical. The note with it: single concentration point of 40 μg/ml.

Data set [4] deals with T1, ICL. The following applies: read-out: IC50 against ICL; ref Muñoz-Elías and McKinney, 2005; cited from earlier work.
[5] abbreviates: read-out: MIC99 mc^2-7000 Mtb acetate.
The mark [6] stands for this setting: read-out: MIC99 mc^2-7000 Mtb dextrose.

Values after ≈ are worked out from the molar mass of the structure shown. Where two headings read alike, the source gives them in different places.

`COc1c(N2C[C@@H]3CCCN[C@@H]3C2)c(F)cc2c(=O)c(C(=O)O)cn(C3CC3)c12` [Moxifloxacin]: in the data set with M. tuberculosis, the “Decrease in log10 CFU in lungs” value was determined as 3.07 log10 CFU.
In data set [1], `O=C(O)C(=O)CC(=O)c1ccccc1F` [Compound 2] gave a Half-life of 288 h. Also, in “UV absorbance peak”, the λmax is 333 nM. Also, in the data set with mc^2-7000 Mtb, the “MIC99 mc^2-7000 Mtb dextrose” value amounted to 200 µM (≈ 42 µg/mL) and the “MIC99 mc^2-7000 Mtb acetate” value was more than 200 µM.
Regarding `Cc1ccccc1C(=O)CC(=O)C(=O)O` [Compound 1], in [1], the Half-life turned out to be 720 h. Also, in data set [2], the “Mouse plasma protein binding” value was determined as 70.7 ± 1.8%. In “UV absorbance peak”, this molecule came in with a λmax of 326 nM. In addition, in the data set with mc^2-7000 Mtb, the “MIC99 mc^2-7000 Mtb dextrose” value came out at 200 µM (≈ 41.2 µg/mL) and the “MIC99 mc^2-7000 Mtb acetate” value is more than 200 µM. Moreover, the “H37Rv MIC99 on acetate” value in the data set on H37Rv (acetate) was 16 µM. For the same molecule, the “H37Rv MIC99 on dextrose” value with H37Rv (dextrose) was 31 µM.
The molecule `O=C(O)C(=O)CC(=O)c1cccc(Cl)c1` [Compound 6] returned a Half-life in [1] of 170 h. Further, the λmax in “UV absorbance peak” is given as 341 nM. In addition, in the data set on mc^2-7000 Mtb, the “MIC99 mc^2-7000 Mtb dextrose” value amounted to 25 µM (≈ 5.67 µg/mL) and the “MIC99 mc^2-7000 Mtb acetate” value was 25 µM (≈ 5.67 µg/mL).
As for `O=C(O)/C(O)=C/C(=O)c1ccccc1` [PDKA, (Z)-2-hydroxy-4-oxo-4-phenylbut-2-enoic acid], the λmax in the data set “UV absorbance peak” is 340 nM. The results for the MIC99 with mc^2-7000 Mtb (setting [5]) and in the data set with mc^2-7000 Mtb (setting [6]) were 50 µM (≈ 9.61 µg/mL) and 25 µM (≈ 4.8 µg/mL), respectively. The “activity against ICL” value on ICL [3] was “inactive”. In addition, the Half-life in “physchem” was approximately 72 h.
In the case of `O=C(O)C(=O)CC(=O)c1ccccc1Cl` [Compound 3], the Half-life in data set [1] was found to be 840 h. This molecule came in with a λmax in the data set “UV absorbance peak” of 324 nM. In the data set on mc^2-7000 Mtb, the “MIC99 mc^2-7000 Mtb dextrose” value was 200 µM (≈ 45.3 µg/mL) and the “MIC99 mc^2-7000 Mtb acetate” value is more than 200 µM.
Turning to `CO[C@H]1/C=C/O[C@@]2(C)Oc3c(C)c(O)c4c(O)c(c(/C=N/N5CCN(C)CC5)c(O)c4c3C2=O)NC(=O)/C(C)=C\C=C\[C@H](C)[C@H](O)[C@@H](C)[C@@H](O)[C@@H](C)[C@H](OC(C)=O)[C@@H]1C` [Rifampicin, reference compound], the MIC99 in the data set with mc^2-7000 Mtb (setting [5]) amounted to 0.25 µM (≈ 0.206 µg/mL); with mc^2-7000 Mtb (setting [6]), 0.125 µM (≈ 0.103 µg/mL).
On to `O=C(O)C(=O)CC(=O)c1ccc(Br)cc1` [Compound 9], for which the Half-life in data set [1] stood at 170 h. The same molecule returned a λmax in the data set “UV absorbance peak” of 345 nM. In addition, in the data set with mc^2-7000 Mtb, the “MIC99 mc^2-7000 Mtb dextrose” value was determined as 25 µM (≈ 6.78 µg/mL) and the “MIC99 mc^2-7000 Mtb acetate” value stood at 50 µM (≈ 13.6 µg/mL).
In the case of `O=C(O)CC[N+](=O)[O-]` [3-nitropropionate], the concentration for half-maximal inhibition (IC50) on ICL [4] is 3000 nM.
Take `Cc1ccc(C(=O)CC(=O)C(=O)O)cc1` [Compound 8]: in [1], the Half-life was 190 h. In addition, in “UV absorbance peak”, the λmax is on record as 340 nM. In the data set on mc^2-7000 Mtb, the “MIC99 mc^2-7000 Mtb dextrose” value stood at 100 µM (≈ 20.6 µg/mL) and the “MIC99 mc^2-7000 Mtb acetate” value amounted to 50 µM (≈ 10.3 µg/mL).

The MIC99 is the lowest concentration that inhibits either 99% of growth or 99% of the strains tested, depending on the study. What is called IC50 is the concentration needed to halve the response being measured.

(Values after paper PMC3530165 (Chemistry & biology, 2012).)
